# Reference: US20260317298A1, “Cereblon Ligands and Uses Thereof” (REGENTS OF THE UNIVERSITY OF MICHIGAN, priority 2022, published 2026)
# Where a name gives a salt, the structure may show the parent alone.
# Target: CRBN/DDB1 (Homo sapiens, UniProt Q96SW2)
# Assay: biochemical
# Description: The CRBN−DDB1 binding potency of the present disclosure was determined using HTRF assay technology (Perkin Elmer). Compounds are serially diluted and are transferred multi-well plate. The reaction was conducted with addition of His tagged (e.g., CRBN+DDB-DLS7+CXU4) followed by addition of fluorescent probe (e.g., Cy5-labeled Thalidomide), and MAb Anti-6HIS Tb cryptate Gold in the assay buffer. After certain period of incubation at room temperature, the HTRF signals were read on a reader.
# The binding potency was determined using HTRF assay technology (Perkin Elmer). Compounds were serially diluted in DMSO and 0.2 μL volume was transferred to white 384-well plate. […] After one hour incubation at room temperature, the HTRF signals were read on Envision reader (Perkin Elemer). Data was analyzed using XLfit using four parameters dose response curve to determine IC50s.
# Chain of CRBN/DDB1 (Q96SW2 whole entry): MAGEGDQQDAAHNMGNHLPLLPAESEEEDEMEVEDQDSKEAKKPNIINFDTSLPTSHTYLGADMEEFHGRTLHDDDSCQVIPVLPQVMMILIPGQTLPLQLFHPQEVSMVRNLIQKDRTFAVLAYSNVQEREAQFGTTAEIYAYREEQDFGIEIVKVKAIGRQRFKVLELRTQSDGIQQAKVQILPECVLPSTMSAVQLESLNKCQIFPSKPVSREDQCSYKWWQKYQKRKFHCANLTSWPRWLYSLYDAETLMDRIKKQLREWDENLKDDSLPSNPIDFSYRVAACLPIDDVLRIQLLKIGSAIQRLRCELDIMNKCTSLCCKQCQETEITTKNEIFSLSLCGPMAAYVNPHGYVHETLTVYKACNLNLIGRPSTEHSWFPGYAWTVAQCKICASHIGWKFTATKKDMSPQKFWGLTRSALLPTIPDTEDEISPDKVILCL
# Chain of CRBN/DDB1 (Q16531 whole entry partner): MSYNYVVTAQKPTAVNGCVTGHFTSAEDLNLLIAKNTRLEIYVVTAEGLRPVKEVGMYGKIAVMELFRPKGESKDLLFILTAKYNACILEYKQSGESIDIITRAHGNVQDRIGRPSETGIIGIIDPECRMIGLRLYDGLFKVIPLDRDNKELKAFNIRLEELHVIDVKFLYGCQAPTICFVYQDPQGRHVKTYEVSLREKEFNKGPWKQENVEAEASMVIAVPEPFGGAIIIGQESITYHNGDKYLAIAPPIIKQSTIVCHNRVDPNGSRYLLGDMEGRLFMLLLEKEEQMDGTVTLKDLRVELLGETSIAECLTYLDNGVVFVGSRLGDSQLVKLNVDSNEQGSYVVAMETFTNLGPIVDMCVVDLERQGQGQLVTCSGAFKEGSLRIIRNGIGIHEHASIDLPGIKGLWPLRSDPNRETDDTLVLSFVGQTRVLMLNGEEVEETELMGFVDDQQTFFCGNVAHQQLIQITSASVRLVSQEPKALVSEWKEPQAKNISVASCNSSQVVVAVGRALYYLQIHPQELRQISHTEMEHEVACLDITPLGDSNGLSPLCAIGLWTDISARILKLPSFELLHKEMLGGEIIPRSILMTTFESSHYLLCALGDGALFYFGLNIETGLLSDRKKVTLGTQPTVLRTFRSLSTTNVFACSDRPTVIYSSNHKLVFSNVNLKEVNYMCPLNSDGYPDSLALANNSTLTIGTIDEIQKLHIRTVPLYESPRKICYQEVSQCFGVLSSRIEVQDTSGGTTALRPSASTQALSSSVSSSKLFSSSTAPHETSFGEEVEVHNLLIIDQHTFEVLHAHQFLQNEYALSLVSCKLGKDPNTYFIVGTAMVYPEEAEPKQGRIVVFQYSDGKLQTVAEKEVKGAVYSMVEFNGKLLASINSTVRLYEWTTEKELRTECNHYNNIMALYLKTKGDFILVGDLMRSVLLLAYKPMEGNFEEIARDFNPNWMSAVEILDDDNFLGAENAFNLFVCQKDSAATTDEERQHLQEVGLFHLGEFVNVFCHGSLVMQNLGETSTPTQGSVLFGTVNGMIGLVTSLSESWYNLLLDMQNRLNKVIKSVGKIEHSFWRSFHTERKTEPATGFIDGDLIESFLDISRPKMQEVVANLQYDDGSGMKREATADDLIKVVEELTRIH
row,Structure (SMILES),IC50 [nM]
1,"O=C1CC[C@H](Nc2ccc([C@@]34CCNC[C@@H]3C4(F)F)cc2)C(=O)N1 (single isomer, unassigned) [Compound 1]",500 to 5000
2,"O=C1CC[C@@H](Nc2ccc([C@@]34CCNC[C@@H]3C4(F)F)cc2)C(=O)N1 (single isomer, unassigned) [Compound 2]",500 to 5000
3,"O=C1CCC(Nc2ccc3c(c2)OCC32CCNCC2)C(=O)N1 (stereo in doubt) [Compound 11, (R)-3-((2H-spiro[benzofuran-3,4′-piperidin]-6-yl)amino)piperidine-2,6-dione]",50 to 500
4,"O=C1CCC(Nc2ccc3c(c2)OCC32CCNCC2)C(=O)N1 (stereo in doubt) [Compound 12, (S)-3-((2H-spiro[benzofuran-3,4′-piperidin]-6-yl)amino)piperidine-2,6-dione]",500 to 5000
5,"O=C1CC[C@@H](Nc2ccc([C@]34CCNC[C@H]3C4(F)F)cc2)C(=O)N1 [Compound 3, (R)-3-((4-((1S,6S)-7,7-difluoro-3-azabicyclo[4.1.0]heptan-6-yl)phenyl)amino)piperidine-2,6-dione]",500 to 5000
6,"O=C1CC[C@H](Nc2ccc([C@]34CCNC[C@H]3C4(F)F)cc2)C(=O)N1 [Compound 4, (S)-3-((4-((1S,6S)-7,7-difluoro-3-azabicyclo[4.1.0]heptan-6-yl)phenyl)amino)piperidine-2,6-dione]",500 to 5000
7,"O=C1CC[C@@H](Oc2ccc3c(c2)OCC32CCNCC2)C(=O)N1 [Compound 5, (R)-3-((2H-spiro[benzofuran-3,4′-piperidin]-6-yl)oxy)piperidine-2,6-dione]",500 to 5000
8,"O=C1CC[C@H](Oc2ccc3c(c2)OCC32CCNCC2)C(=O)N1 [Compound 6, (S)-3-((2H-spiro[benzofuran-3,4′-piperidin]-6-yl)oxy)piperidine-2,6-dione]",500 to 5000
9,"Cc1cc([C@@]23CCNC[C@@H]2C3(F)F)ccc1N[C@@H]1CCC(=O)NC1=O [Compound 7, (R)-3-((4-((1R,6R)-7,7-difluoro-3-azabicyclo[4.1.0]heptan-6-yl)-2-methylphenyl)amino)piperidine-2,6-dione]",> 5000
10,"Cc1cc([C@@]23CCNC[C@@H]2C3(F)F)ccc1N[C@H]1CCC(=O)NC1=O [Compound 8, (S)-3-((4-((1R,6R)-7,7-difluoro-3-azabicyclo[4.1.0]heptan-6-yl)-2-methylphenyl)amino)piperidine-2,6-dione]",500 to 5000
11,"Cc1cc([C@]23CCNC[C@H]2C3(F)F)ccc1N[C@@H]1CCC(=O)NC1=O [Compound 9, (R)-3-((4-((1S,6S)-7,7-difluoro-3-azabicyclo[4.1.0]heptan-6-yl)-2-methylphenyl)amino)piperidine-2,6-dione]",500 to 5000
12,"Cc1cc([C@]23CCNC[C@H]2C3(F)F)ccc1N[C@H]1CCC(=O)NC1=O [Compound 10, (S)-3-((4-((1S,6S)-7,7-difluoro-3-azabicyclo[4.1.0]heptan-6-yl)-2-methylphenyl)amino)piperidine-2,6-dione]",> 5000
13,"O=C1CCC(Nc2ccc3c(c2)COC32CCNCC2)C(=O)N1 (centres unmarked) [Compound 15, 3-((3H-spiro[isobenzofuran-1,4′-piperidin]-5-yl)amino)piperidine-2,6-dione HCO2H salt]",500 to 5000
14,"O=C1CCC(Nc2ccc3c(c2)OCC32CCNCC2(F)F)C(=O)N1 (centres unmarked) [Compound 16, 3-((3′,3′-difluoro-2H-spiro[benzofuran-3,4′-piperidin]-6-yl)amino)piperidine-2,6-dione]",500 to 5000
15,"O=C1CCC2(CC1)COc1cc(NC3CCC(=O)NC3=O)ccc12 (centres unmarked) [Compound 17, 3-((4′-oxo-2H-spiro[benzofuran-3,1′-cyclohexan]-6-yl)amino)piperidine-2,6-dione]",500 to 5000
16,"O=C1CCC(Nc2cc3c(cc2F)C2(CCNCC2)CO3)C(=O)N1 (centres unmarked) [Compound 18, 3-((5-fluoro-2H-spiro[benzofuran-3,4′-piperidin]-6-yl)amino)piperidine-2,6-dione HCl salt]",500 to 5000
17,"O=C1CCC(Nc2cc(F)c3c(c2)OCC32CCNCC2)C(=O)N1 (centres unmarked) [Compound 19, 3-((4-fluoro-2H-spiro[benzofuran-3,4′-piperidin]-6-yl)amino)piperidine-2,6-dione HCl salt]",50 to 500
